Assay results taken from paper PMC6271935, “Synthesis and Broad-Spectrum Antiviral Activity of Some Novel Benzo-Heterocyclic Amine Compounds” (Molecules, 2014).

Columns and labels:
[1] = system: Influenza A/hanfang/359/95; assay: microbe, parasite or virus in culture; assay type: cell-based; conditions: for IC50: Influenza A virus, MDCK
MDCK cells = assay: Cytotoxicity in MDCK cells (CPE); assay type: cell-based, Canine; conditions: 48 h, Reed & Muench
Method: (§1) The cytotoxicity of the compounds in MDCK, Vero and HepG2.2.15 cells was monitored via cytopathic effect (CPE) assays. The MDCK and Vero cells (2.5 × 10^4 /well) were plated in a 96-well plate. Following a 24 h hold period, the monolayer of cells was incubated in the presence of various concentrations of the test compounds. […] The TC50 value was calculated using Reed & Muench analysis.

Cox B3 = assay: organism not typed; assay type: cell-based, Coxsackie viruses (Cox B3 Nancy strain); conditions: for IC50: Vero
HCV = assay: Anti-HCV assay in Huh7.5 cells, intracellular HCV RNA by real time RT-PCR; assay type: cell-based; conditions: Hepatitis C virus, 96 h
Huh7.5 cells = assay: Cytotoxicity in Huh7.5 cells (MTT); assay type: cell-based, human; conditions: 96 h
Method: The Huh7.5 cells (1 × 10^4 cells/well) were plated in 96-well plates. Six hours later the culture media was replaced with fresh medium containing the test compounds at various concentrations. Cytotoxicity was evaluated with the 3-(4,5-dimethylthiazol-2-yl)-2,5-diphenyltetrazolium bromide (MTT) assay after 96 h.
Huh7.5 cells were seeded at a density of 3 × 10^4 cells/cm^2. After 24 h of incubation, the cells were infected with an HCV viral stock (approximately 45 IU per cell) and simultaneously treated with Telaprevir, the test compounds, or the solvent control. The culture medium was removed 96 h after inoculation, and the total intracellular RNA and total intracellular proteins were extracted with a Qiagen Kit according to the manufacturer’s instructions. Intracellular HCV RNA was quantified using a one-step real time RT-PCR kit (Invitrogen). Cytotoxicity was tested by the MTT assay, and IC50 values were calculated by the Reed and Muench methods.

HBV = assay: Anti-HBV assay in HepG2.2.15 cells, viral DNA by real time PCR; assay type: cell-based, Hepatitis B virus; conditions: for IC50: Hepatitis B virus, HepG2.2.15, 144 h, intracellular viral DNA, 3 + 3 days
Method: The synthesized target compounds were assayed for their broad spectrum antiviral activity towards influenza A, HBV, HCV and Cox B3 virus in vitro. […] The inhibitory activities towards HBV and HCV were tested by real time PCR, and lamivudine (3TC) and teleprevir were used as positive controls, respectively.
The anti-HBV activities of test compounds and a positive control drug were tested in HepG2.2.15 cells. The HepG2.2.15 cells were cultured in 96-well plates and treated with the test compounds at 37 °C for 3 days. The medium was removed, and fresh medium containing the test compounds was added for an additional 3 days. The cells were harvested and intracellular DNA was extracted. The inhibition of viral DNA replication in treated cells versus untreated cells was determined by real time PCR.

HepG2.2.15 cells = assay: Cytotoxicity in HepG2.2.15 cells (CPE); assay type: cell-based, human; conditions: 3 + 3 days
Method: Cells were cultured for 3 days at 37 °C in a 5% CO2 atmosphere in an incubator, and the medium was replaced with fresh medium containing the test compounds for an additional 3 days. The cells were subsequently monitored by CPE and the TC50 value was calculated using Reed and Muench analysis.

Vero cells = assay: Cytotoxicity in Vero cells (CPE); conditions: 48 h, Reed & Muench
Method: as §1

SMILES | IC50 [1] [µM] | TC50 (50% cytotoxic concentration), Influenza A/hanfang/359/95 (MDCK cells) [µM] | IC50 (Cox B3) [µM] | IC50 (HCV) [µM] | TC50 (50% cytotoxic concentration), HCV (Huh7.5 cells) [µM] | IC50 (HBV) [µM] | TC50 (50% cytotoxic concentration), HBV (HepG2.2.15 cells) [µM] | melting point [°C] | TC50 (50% cytotoxic concentration), Cox B3 (Vero cells) [µM] | anti-HBV activity (in words) (HBV) | anti-influenza A activity (in words) ([1]; MDCK cells, CPE) | inhibitory activity towards Cox B3 (in words) (Cox B3; Vero cells, CPE)
Clc1ccc(CNc2ccc3cc[nH]c3c2)cc1 [1a, (4-Chlorobenzyl)-(1H-indol-6-yl)-amine] | > 1.6 | 3.35 | 4.79 | 1.4 | 15.88 | 1.44 | 8.02 | 135 to 137 | 8.34 | – | – | –
C(=C\c1ccccc1)/CNc1ccc2cc[nH]c2c1 [1b, (E)-(1H-Indol-6-yl)-(3-phenylallyl)-amine] | > 1.65 | 2.86 | 2.86 | – | – | > 1.85 | 3.21 | 130 to 132 | 8.61 | – | – | –
Cc1ccc(CNc2ccc3cc[nH]c3c2)o1 [1c, (1H-Indol-6-yl)-(5-methylfuran-2-ylmethyl)-amine] | > 0.66 | 4.52 | 1.93 | 2.77 | 46.78 | > 5.56 | 16.67 | 100 to 102 | 25.15 | complete loss of antiviral activity | – | –
Cc1ccc(CNc2ccc3cc[nH]c3c2)s1 [1d, (1H-Indol-6-yl)-(5-methylthiophen-2-ylmethyl)-amine] | 11.8 | 26.50 | 1.69 | – | – | > 16.7 | 28.87 | 89 to 91 | 66.10 | – | – | –
COc1cc(CNc2ccc3ncoc3c2)cc(Br)c1O [2a, 4-(Benzooxazol-6-ylaminomethyl)-2-bromo-6-methoxyphenol] | > 10.6 | 64.04 | 3.52 | 33 | 89.63 | > 16.7 | 28.87 | 129 to 131 | 55.13 | – | – | –
O=[N+]([O-])c1ccc(CNc2ccc3ncoc3c2)cc1 [2b, Benzooxazol-6-yl-(4-nitrobenzyl)-amine] | 41.3 | 288.23 | 31.3 | > 66.7 | >200 | > 5.56 | 16.67 | 154 to 156 | 257.52 | – | – | –
C(=C\c1ccccc1)/CNc1ccc2ncoc2c1 [2c, (E)-Benzooxazol-6-yl-(3-phenylallyl)-amine] | 11.6 | 133.16 | 1.24 | 10.5 | 105.44 | > 16.7 | 28.87 | 100 to 103 | 103.36 | – | – | –
c1csc(CNc2ccc3ncoc3c2)c1 [2d, Benzooxazol-6-yl-thiophen-2-ylmethylamine] | 34.4 | 434.24 | 9.29 | > 66.7 | 136.53 | – | – | 62 to 64 | 100.35 | – | – | –
Clc1ccc(CNc2ccc3ncoc3c2)s1 [2e, Benzooxazol-6-yl-(5-chlorothiophen-2-ylmethyl)-amine] | 11 | 87.30 | 3.55 | 17.7 | 45.78 | > 11.1 | 19.25 | 100 to 102 | 29.08 | – | – | –
c1ncc(CNc2ccc3ncoc3c2)cn1 [2f, Benzooxazol-6-yl-pyrimidin-5-ylmethyl-amine] | > 98.3 | 425.44 | 56.7 | – | – | – | – | 175 to 177 | 295.10 | – | – | –
c1cnc2c(CNc3ccc4ncoc4c3)cccc2c1 [2g, Benzooxazol-6-yl-quinolin-8-ylmethylamine] | 9.04 | 56.04 | 8.98 | 14.2 | 27.57 | – | – | 98 to 100 | 80.80 | – | – | –
Nc1ccn([C@@H]2CS[C@H](CO)O2)c(=O)n1 [3TC, lamivudine, reference compound] | – | – | – | – | – | 1.85 | >100 | – | – | – | – | –
COc1cc(CNc2ccc3ncsc3c2)cc(Br)c1O [3a, 4-(Benzothiazol-6-ylaminomethyl)-2-bromo-6-methoxyphenol] | > 10.1 | 21.08 | 10.1 | 49 | 108.82 | > 16.7 | 28.87 | 193 to 195 | 21.08 | – | – | –
COc1cccc(CNc2ccc3ncsc3c2)c1O [3b, 2-(Benzothiazol-6-ylaminomethyl)-6-methoxyphenol] | 10 | 55.95 | 5.66 | 38 | 126.59 | > 33.3 | 57.74 | 206 to 208 | 67.23 | – | – | –
O=[N+]([O-])c1cccc(CNc2ccc3ncsc3c2)c1 [3c, Benzothiazol-6-yl-(3-nitrobenzyl)-amine] | 12.5 | 45.01 | 7.23 | – | – | – | – | 126 to 128 | 112.45 | – | – | –
O=[N+]([O-])c1ccc(CNc2ccc3ncsc3c2)cc1 [3d, Benzothiazol-6-yl-(4-nitrobenzyl)-amine] | 3.36 | 272.01 | 1.82 | 22.5 | 142.86 | > 5.56 | 9.62 | – | 181.3 | – | – | –
c1csc(CNc2ccc3ncsc3c2)c1 [3h, Benzothiazol-6-yl-thiophen-2-ylmethylamine] | 6.58 | 78.14 | 10.4 | 47.6 | 153.72 | – | – | 148 to 150 | 65.03 | – | – | –
c1ccc2c(CNc3ccc4ncsc4c3)c3ccccc3cc2c1 [3k, Anthracen-9-ylmethyl-benzothiazol-6-yl-amine] | > 0.41 | 1.73 | – | – | – | – | – | 174 to 176 | 2.09 | – | complete loss in activity | no inhibitory activity
C(=C\c1ccccc1)/CNc1ccc2nc[nH]c2c1 [4a, (E)-(3H-Benzoimidazol-5-yl)-(3-phenyl-allyl)-amine] | 4.93 | 14.84 | 6.38 | 5.51 | 79.04 | – | – | – | 25.75 | – | – | –
CCOC(=O)C1=C[C@@H](OC(CC)CC)[C@H](NC(C)=O)[C@@H](N)C1 [Oseltamivir, oseltamivir, reference compound] | 19 | 4030.42 | – | – | – | – | – | – | – | – | – | –
NC(=O)c1ncn([C@@H]2O[C@H](CO)[C@@H](O)[C@H]2O)n1 [RBV, ribavirin, reference compound] | 8.76 | – | 2120 | – | – | – | – | – | – | – | – | –
CCC[C@H](NC(=O)[C@@H]1[C@H]2CCC[C@H]2CN1C(=O)[C@@H](NC(=O)[C@@H](NC(=O)c1cnccn1)C1CCCCC1)C(C)(C)C)C(=O)C(=O)NC1CC1 [Telaprevir, telaprevir, reference compound] | – | – | – | 0.011 | 32.12 | – | – | – | – | – | – | –
